The series can be described thus: Solubility study of TAT-NR2B9c, visual analysis. In kind it is physicochemical. Particulars: pH 6.5, 35, 50, 75 and 100 mg/mL, t=0 and t=24 hours. How it is done: Due to the relatively low Tg temperatures that would likely require a longer lyophilization cycle to dry, we looked at a wider range of standard bulking agents and looked to reduce the fill volume into the container closure system so that there would be a reduced volume of liquid to lyophilize. […] Samples were visually analyzed at 35, 50, 75 and 100 mg/mL. All solutions were clear at t=0 and t=24 hours. […] A wide range of quantities may be required in a vial, but 270 mg would provide a […] dose for a 100 kg patient. Assuming the target reconstitution concentration for patient administration is still 20 mg/mL (but can be from 1 mg/ml to 100 mg/ml), then a 20-mL lyophilization vial containing 270 mg of TAT-NR2B9c can be used with a reconstitution volume of 13.5 mL. Therefore, optimal volumes of liquid for lyophilization of TAT-NR2B9c in the vial would be between 2.5 mL and 10 mL.

No end group written: not given here.

YGRKKRRQRRRKLSSIESDV [TAT-NR2B9c]: the “solubility, visual analysis” value (in Histidine+Trehalose) was “clear” and the “solubility, visual analysis” value (in Histidine) is given as “clear”.

(Values after patent US11266714B2, “Chloride salt of TAT-NR2B9C” (NoNO Inc., priority 2014, dated 2022).)
